Reference: patent US20080063628A1, “METHODS TO PROMOTE CELL DIFFERENTIATION” (priority 2006, published 2008)

Key:
[1] = test system: amniotic fluid-derived cell line; assay: Two sequential low dose trichostatin A treatments, gene expression by RT-PCR (Example 7); format: cell-based, human; conditions: for Gata1 gene expression / HNF (HNF-3 beta) gene expression / Insulin gene expression / Pdx-1 gene expression / sox17 gene expression: 500 nM 0-24 h + 96-120 h
Experimental: (§1) Several cell lines obtained from different amniotic fluid specimens (see Example 14) and pancreas donors (see Example 13) were tested with similar results. Two lines at similar passage number but derived from different amniotic fluid specimens are shown in Table VII-A and Table VII-B for this example. One of these cell lines was also used in examples 2 and 4 above. In addition, this example also contains comparison data in Table VII-C and Table VII-D for a single pancreatic-derived stromal line grown to early and late passage number.
(§2) Amniotic fluid derived cells or pancreatic-derived stromal cells were seeded into 24-well tissue culture plates at a density of 5000/cm^2 and cultured in AMNIOMAX (Invitrogen) or DMEM with 10% FBS respectively under standard cell culture conditions until confluent. After the cells reached confluency, amniotic fluid derived cells were treated at time 0 hours with a dose of 500 nM trichostatin A, and pancreatic-derived stromal cells were treated with a dose of 1.25 μM trichostatin A solubilized in DMSO and medium. At time 24 hours, cell cultures underwent a complete medium change to remove all traces of trichostatin A. At time 96 hours, cell cultures were re-fed with fresh medium and received a second dose of trichostatin A at the same concentration as used previously. At time 120 hours, cell cultures again underwent a complete medium change and were cultured for an additional 24 hours or […] total incubation time.
(§3) Samples were taken daily for RT-PCR at the times indicated in Table VII-A to D. The culture medium was removed, and samples were rinsed in PBS then collected in RLT with β-mercaptoethanol (Qiagen). RNA was purified using the RNeasy Mini Kit (Qiagen) and RNA quantity and quality were determined using a spectrophotometer. cDNA was made using the iScript cDNA synthesis kit (BioRad).
(§4) Samples of 20 ng cDNA were used in each reaction to determine the expression levels of the following genes in amniotic fluid-derived cells: Gata1, HNF-3 beta, Pdx-1, insulin, and Sox17. Similarly, samples of 20 ng cDNA were used in each reaction to determine the expression level of the following genes in pancreatic-derived cells: glucagon, HNF-3 beta, insulin and Pdx-1. Real-Time PCR was performed on the Applied Biosystems 7500, and data was analyzed using the accompanying software according to the methods described in Example 15.
(§5) Real-time PCR amplifcation and quantitative analysis. Unless otherwise stated, all reagents were purchased from Applied Biosystems. Real-time PCR reactions were performed using the ABI PRISM™ 7500 Sequence Detection System. TAQMAN™ FAST UNIVERSAL PCR MASTER MIX™ (ABI, CA) was used with 20 ng of reverse transcribed RNA in a total reaction volume of 20 μl. Each cDNA sample was run in duplicate to allow correction of pipetting errors. Primers and FAM-labeled TAQMAN™ probes were used at concentrations of 200 nM. The level of expression for each target gene was normalized using the pre-developed Applied Biosystem's human glyceraldehyde-3-phosphate dehydrogenase (GAPDH) endogenous control kit. Primers and probes were designed using either ABI PRISM PRIMER EXPRESS™ software or a pre-developed ABI gene analysis kit. For each gene, either one of the primers or the probe were designed to be exon-boundary spanning. This eliminated the possibility of the primers/probe binding to any genomic DNA present. The primer and probe sets are listed as follows: Pdx-1 (Hs00426216), Insulin (Hs00355773), glucagon (Hs00174967), and FoxA2 (HNF 3-beta) (Hs00232764). The remaining primers were designed using the PRIMERS program (ABI, CA). After an initial 95° C. incubation for 20 sec, samples were cycled 40 times in two stages: a denaturation step at 95° C. for 3 sec, followed by an annealing/extension step at 60° C. for 30 sec. […]

[2] = test system: second amniotic fluid-derived cell line; assay: as above; format: cell-based, human; conditions: for Gata1 gene expression / HNF (HNF-3 beta) gene expression / Insulin gene expression / Pdx-1 gene expression / sox17 gene expression: 500 nM 0-24 h + 96-120 h
Experimental: as §1, §2, §3, §4, §5

In the case of `CC(/C=C/C(=O)NO)=C\[C@@H](C)C(=O)c1ccc(N(C)C)cc1` [trichostatin A], the “Insulin RT-PCR detection cycle” value ([1]; 0.5 μM, by 48 hours (after removal at 24 h)) is reported as 36 cycles, the “HNF-3 beta RT-PCR detection cycle” value ([1]; 0.5 μM, following the first treatment) is reported as 33 cycles and the “HNF-3 beta RT-PCR detection cycle” value ([1]; 0.5 μM, following the second treatment) is reported as 37 cycles. For the same molecule, the “Pdx-1 RT-PCR detection cycle” value ([1]; 0.5 μM, for 24 hours following the addition) was 37 cycles, the Gata1 gene expression ([1]; 24 hrs) was “nd (not detectable at >40 cycles by RT-PCR)” and the “HNF (HNF-3 beta) gene expression” value ([1]; 24 hrs) was “+++ (detectable at less than 35 cycles by RT-PCR with SE less than 0.9)”. The Insulin gene expression ([1]; 24 hrs) was “nd (not detectable at >40 cycles by RT-PCR)”, the Pdx-1 gene expression ([1]; 24 hrs) was “+ (detectable between 35 and 40 cycles by RT-PCR)” and the sox17 gene expression ([1]; 24 hrs) was “+++ (detectable at less than 35 cycles by RT-PCR with SE less than 0.9)”. For the same molecule, the Gata1 gene expression ([1]; 48 hrs) was “nd (not detectable at >40 cycles by RT-PCR)”, the “HNF (HNF-3 beta) gene expression” value ([1]; 48 hrs) was “+++ (detectable at less than 35 cycles by RT-PCR with SE less than 0.9)” and the Insulin gene expression ([1]; 48 hrs) was “+ (detectable between 35 and 40 cycles by RT-PCR)”. The Pdx-1 gene expression ([1]; 48 hrs) was “nd (not detectable at >40 cycles by RT-PCR)”, the sox17 gene expression ([1]; 48 hrs) was “+++ (detectable at less than 35 cycles by RT-PCR with SE less than 0.9)” and the Gata1 gene expression ([1]; 72 hrs) was “nd (not detectable at >40 cycles by RT-PCR)”. For the same molecule, the “HNF (HNF-3 beta) gene expression” value ([1]; 72 hrs) was “+ (detectable between 35 and 40 cycles by RT-PCR)”, the Insulin gene expression ([1]; 72 hrs) was “+ (detectable between 35 and 40 cycles by RT-PCR)” and the Pdx-1 gene expression ([1]; 72 hrs) was “nd (not detectable at >40 cycles by RT-PCR)”. For the same molecule, the sox17 gene expression ([1]; 72 hrs) was “+++ (detectable at less than 35 cycles by RT-PCR with SE less than 0.9)”, the Gata1 gene expression ([1]; 96 hrs) was “nd (not detectable at >40 cycles by RT-PCR)” and the “HNF (HNF-3 beta) gene expression” value ([1]; 96 hrs) was “nd (not detectable at >40 cycles by RT-PCR)”. For the same molecule, the Insulin gene expression ([1]; 96 hrs) was “+ (detectable between 35 and 40 cycles by RT-PCR)”, the Pdx-1 gene expression ([1]; 96 hrs) was “nd (not detectable at >40 cycles by RT-PCR)” and the sox17 gene expression ([1]; 96 hrs) was “+++ (detectable at less than 35 cycles by RT-PCR with SE less than 0.9)”. The Gata1 gene expression ([1]; 120 hrs) was “nd (not detectable at >40 cycles by RT-PCR)”, the “HNF (HNF-3 beta) gene expression” value ([1]; 120 hrs) was “+ (detectable between 35 and 40 cycles by RT-PCR)” and the Insulin gene expression ([1]; 120 hrs) was “+ (detectable between 35 and 40 cycles by RT-PCR)”. The Pdx-1 gene expression ([1]; 120 hrs) was “nd (not detectable at >40 cycles by RT-PCR)”, the sox17 gene expression ([1]; 120 hrs) was “+++ (detectable at less than 35 cycles by RT-PCR with SE less than 0.9)” and the Gata1 gene expression ([1]; 144 hrs) was “nd (not detectable at >40 cycles by RT-PCR)”. The “HNF (HNF-3 beta) gene expression” value ([1]; 144 hrs) was “+ (detectable between 35 and 40 cycles by RT-PCR)”, the Insulin gene expression ([1]; 144 hrs) was “+ (detectable between 35 and 40 cycles by RT-PCR)” and the Pdx-1 gene expression ([1]; 144 hrs) was “nd (not detectable at >40 cycles by RT-PCR)”. The sox17 gene expression ([1]; 144 hrs) was “+++ (detectable at less than 35 cycles by RT-PCR with SE less than 0.9)”, the “Pdx-1 RT-PCR detection cycle” value ([2]; 0.5 μM, 24 hours) was 39 cycles and the “Insulin RT-PCR detection cycle” value ([2]; 0.5 μM, 72 hours and remainder of the experiment) was 34 cycles. The “HNF-3 beta RT-PCR detection cycle” value ([2]; 0.5 μM, until 72 hours) was 34 cycles, the Gata1 gene expression ([2]; 24 hrs) was “nd (not detectable at >40 cycles by RT-PCR)” and the “HNF (HNF-3 beta) gene expression” value ([2]; 24 hrs) was “+++ (detectable at less than 35 cycles RT-PCR with SE less than 0.9)”. The Insulin gene expression ([2]; 24 hrs) was “nd (not detectable at >40 cycles by RT-PCR)”, the Pdx-1 gene expression ([2]; 24 hrs) was “+ (detectable between 35 and 40 cycles RT-PCR)” and the sox17 gene expression ([2]; 24 hrs) was “+++ (detectable at less than 35 cycles RT-PCR with SE less than 0.9)”. For the same molecule, the Gata1 gene expression ([2]; 48 hrs) was “nd (not detectable at >40 cycles by RT-PCR)”, the “HNF (HNF-3 beta) gene expression” value ([2]; 48 hrs) was “+++ (detectable at less than 35 cycles RT-PCR with SE less than 0.9)” and the Insulin gene expression ([2]; 48 hrs) was “nd (not detectable at >40 cycles by RT-PCR)”. The Pdx-1 gene expression ([2]; 48 hrs) was “nd (not detectable at >40 cycles by RT-PCR)”, the sox17 gene expression ([2]; 48 hrs) was “+++ (detectable at less than 35 cycles RT-PCR with SE less than 0.9)” and the Gata1 gene expression ([2]; 72 hrs) was “nd (not detectable at >40 cycles by RT-PCR)”. For the same molecule, the “HNF (HNF-3 beta) gene expression” value ([2]; 72 hrs) was “+++ (detectable at less than 35 cycles RT-PCR with SE less than 0.9)”, the Insulin gene expression ([2]; 72 hrs) was “+++ (detectable at less than 35 cycles RT-PCR with SE less than 0.9)” and the Pdx-1 gene expression ([2]; 72 hrs) was “nd (not detectable at >40 cycles by RT-PCR)”. For the same molecule, the sox17 gene expression ([2]; 72 hrs) was “+++ (detectable at less than 35 cycles RT-PCR with SE less than 0.9)”, the Gata1 gene expression ([2]; 96 hrs) was “nd (not detectable at >40 cycles by RT-PCR)” and the “HNF (HNF-3 beta) gene expression” value ([2]; 96 hrs) was “+ (detectable between 35 and 40 cycles RT-PCR)”. For the same molecule, the Insulin gene expression ([2]; 96 hrs) was “+++ (detectable at less than 35 cycles RT-PCR with SE less than 0.9)”, the Pdx-1 gene expression ([2]; 96 hrs) was “nd (not detectable at >40 cycles by RT-PCR)” and the sox17 gene expression ([2]; 96 hrs) was “+++ (detectable at less than 35 cycles RT-PCR with SE less than 0.9)”. For the same molecule, the Gata1 gene expression ([2]; 120 hrs) was “nd (not detectable at >40 cycles by RT-PCR)”, the “HNF (HNF-3 beta) gene expression” value ([2]; 120 hrs) was “+ (detectable between 35 and 40 cycles RT-PCR)” and the Insulin gene expression ([2]; 120 hrs) was “+ (detectable between 35 and 40 cycles RT-PCR)”. The Pdx-1 gene expression ([2]; 120 hrs) was “nd (not detectable at >40 cycles by RT-PCR)”, the sox17 gene expression ([2]; 120 hrs) was “+++ (detectable at less than 35 cycles RT-PCR with SE less than 0.9)” and the Gata1 gene expression ([2]; 144 hrs) was “nd (not detectable at >40 cycles by RT-PCR)”. For the same molecule, the “HNF (HNF-3 beta) gene expression” value ([2]; 144 hrs) was “+ (detectable between 35 and 40 cycles RT-PCR)”, the Insulin gene expression ([2]; 144 hrs) was “+++ (detectable at less than 35 cycles RT-PCR with SE less than 0.9)” and the Pdx-1 gene expression ([2]; 144 hrs) was “nd (not detectable at >40 cycles by RT-PCR)”. For the same molecule, the sox17 gene expression ([2]; 144 hrs) was “+++ (detectable at less than 35 cycles RT-PCR with SE less than 0.9)”.
